Laboratory results reported in US20240315990A1, “Adelmidrol For Use In Diseases Characterized By Insufficient Agonism Of PPAR-GAMMA Receptor” (Epitech Group S.P.A., priority 2016, published 2024).
“Also recorded” adds a separate entry of the source.

Assays:
[1] = tested on: MIA-induced articular cartilage erosion; assay: monosodium iodoacetate (MIA)-induced articular lesion, cartilage erosion by stereomicroscope; type: in vivo; conditions: Adelmidrol 150 μg/25 μL i.a.
Method: FIG. 1A. Images obtained by a stereomicroscope on the state of erosion of the interposed cartilage in the right knee of each experimental group: control, MIA, Adelmidrol 150 μg/25 μL i.a. The analysis was performed 21 days after the induction of the disease.
FIG. 1B. Effect of the treatment with Adelmidrol 150 μg/25 μL i.a. on the erosive lesion of the interposed cartilage upon injection of MIA, compared to MIA and control groups treated with the solvent;
A microscopic analysis of the lesion related to the articular cartilage was performed by comparing the erosive lesion of the articular cartilage between the following groups: animals not treated with MIA, animals treated with MIA+solvent, and animals treated with MIA+solvent added with Adelmidrol. […] In the image corresponding to the animal damaged through MIA, an extensive cartilage erosion is apparent, which also allows to distinguish the subchondral bone, unlike the animal control whose joint is in excellent condition. […] Each image was given a score from 0 to 4 (0=normal; 4=maximum degree of injury severity) expressing the articular cartilage lesion in terms of increasing severity (Janusz M J et al. Ostearthritis and Cartilage 2001; 9:751-760), as described by Guingamp et al. (Guingamp C. et al. Arthritis & Rheumatism 1997; Vol 40 No 9:1670-1679).

[2] = bleomycin-induced lung lesion, weight change in the animals; type: in vivo, CD1 male mice; conditions: mice, bleomycin (BLM) + Adelmidrol vs BLM + inert vehicle
Method: CD1 male mice ((CD1(ICR) mice (25-35 g; Harlan Nossan, Italy) were accommodated in a controlled environment and fed with standard food and water.
Using a catheter (tracheotomy tube), the mice received a single intratracheal instillation of physiological solution (0.9%) or saline containing bleomycin sulfate (0.1 U/mouse) in a final volume of 100 μL, and the liquid was immediately followed by 300 μL of air in order to also ensure the distribution thereof in the distal airways.
All procedures related to the treatment of animals were performed in accordance with the guidelines approved by the Institutional Committee (IACUC) following the guidelines of the Association for Assessment and Accreditation of Laboratory Animal Care (AAALAC). While being monitored, the animals were inspected for any adverse effects produced by the lung lesion. An assessment of the water and food consumption and consequently of the body weight (analyzed daily by weighing the animals) was carried out (Mullane K M et al, 1985, supra).
The animals belonging to the group treated with bleomycin (BLM)+inert vehicle and those belonging to that treated with BLM and Adelmidrol in an inert vehicle were weighed, and the weight change was calculated on the 3rd and 8th day after the start of the treatment with BLM. The results are shown in the chart in FIG. 5.

[3] = tested on: DNBS-induced bowel tissue lesion; assay: DNBS-induced bowel tissue lesion, microscope lesion score; type: in vivo; conditions: rat, DNBS 15 mg intrarectal, Adelmidrol 10 mg/kg per os in 2% CMC
Method: Rats were anesthetized with ethyl ether in order to ensure the animals' waking up after 4-5 minutes. 60 mg/mL DNBS was dissolved in 50% ethanol in water. An amount of 0.25 ml of alcoholic solution (containing 15 mg of DNBS) was instilled to each animal, using an 8 cm long intrarectal catheter made of silicone so as to reach […]. During the experiment, the possible ejection of the solution from the rectum when the animal awoke was carefully monitored, taking it into account in the final assessment. The assessment of the bowel lesion was performed by taking, upon sacrifice of the animal, the entire bowel which was adequately washed with physiological solution and immediately examined under a microscope. Adelmidrol was administered per os through a gastric cannula in an amount of 10 mg/kg dissolved in aqueous solution containing 2% CMC (carboxymethylcellulose). The bowel tissue lesion was quantized through microscope inspection by two different observers. […]

[4] = tested on: carrageenan-induced edema in PPAR-α-WT and KO mice; assay: carrageenan-induced edema in PPAR-alpha knock-out mice; type: in vivo; conditions: Adelmidrol 10 mg/kg i.p.; for edema as a percentage with respect to the edema produced by carrageenan alone: PPAR-α-WT and KO mice
Method: In order to verify a possible involvement of PPAR-alpha receptor, the edema induced by carrageenan in the manners described above was carried out on PPAR-alpha knock-out mice (PPAR-α-WT and KO).
PPAR-α-WT and KO mice (10 animals per group) were divided into the following experimental groups: • CAR+physiological solution; • CAR+Adelmidrol (10 mg/kg); Adelmidrol was administered i.p. when injecting CAR.

In the case of `O=C(CCCCCCCC(=O)NCCO)NCCO` [Adelmidrol, azelaic acid diethanolamide], the “cartilage erosion of the tibial plateau, stereomicroscope image (FIG. 1A)” value ([1]; 21 days after induction with MIA) was “clear protection against cartilage erosion”, the “cartilage erosion, quantitative analysis of score 0 to 4 (FIG. 1B)” value ([1]; compared to MIA + solvent) was “noticeably slow down the cartilage erosion in a statistically significant manner” and the “body weight change on the 3rd and 8th day after start of BLM (FIG. 5)” value [2] was “significant body weight gain”. The “bowel tissue lesion, score 0 to 8 by microscope inspection (FIG. 2, FIG. 3)” value [3] was “important, significant protection of the colonic mucosa”, the “protective action on carrageenan-induced edema in the absence of the PPAR-alpha receptor” value ([4]; PPAR-alpha knock-out mice) was “did not alter the protective action of Adelmidrol; also recorded: shows activity on the carrageenan-induced edema in mice genetically lacking the PPAR-alpha receptor” and the “edema as a percentage with respect to the edema produced by carrageenan alone” value (“edema as a percentage” below) ([4]; 0 min.) was 102.4 percentage. For the same compound, the “edema as a percentage” value ([4]; 30 min) was 81.9 percentage, the “edema as a percentage” value ([4]; 1 hr) was 69.2 percentage and the “edema as a percentage” value ([4]; 2 hr) was 63.9 percentage. The “edema as a percentage” value ([4]; 3 hr) was 55.6 percentage, the “edema as a percentage” value ([4]; 4 hr) was 51.4 percentage and the “edema as a percentage” value ([4]; 5 hr) was 50.3 percentage.
